Results published in ChEMBL document CHEMBL4387776, “Discovery of novel 9H-purin derivatives as dual inhibitors of HDAC1 and CDK2” (Bioorg Med Chem Lett, 2019).

What was measured:
[1] = tested on: A549; test: Antiproliferative activity against human A549 cells measured after 72 hrs by CCK8 assay; assay type: functional, cell-based; conditions: A549, 72 h
[2] = tested on: HepG2; test: Antiproliferative activity against human HepG2 cells measured after 72 hrs by CCK8 assay; assay type: functional, cell-based; conditions: HepG2, 72 h
[3] = tested on: CAL-148; test: Antiproliferative activity against human CAL148 cells measured after 72 hrs by CCK8 assay; assay type: functional, cell-based; conditions: CAL-148, 72 h
[4] = molecular target: Histone deacetylase 1 (Homo sapiens, UniProt Q13547); test: Inhibition of recombinant human full-length C-terminal FLAG-tagged HDAC1 expressed in baculovirus expression system using Ac-peptide-AMC as substrate preincubated for 15 mins followed by substrate addition by fluorescence assay
[5] = molecular target: CDK2/Cyclin A2 (Homo sapiens, UniProt P24941); test: Inhibition of wild-type human N-terminal GST-tagged CDK2/cycA2 expressed in Sf21 insect cells using FAM-labelled substrate preincubated for 10 mins followed by substrate addition and measured after 30 mins by fluorescence assay

Chain of Histone deacetylase 1 (Q13547 whole entry): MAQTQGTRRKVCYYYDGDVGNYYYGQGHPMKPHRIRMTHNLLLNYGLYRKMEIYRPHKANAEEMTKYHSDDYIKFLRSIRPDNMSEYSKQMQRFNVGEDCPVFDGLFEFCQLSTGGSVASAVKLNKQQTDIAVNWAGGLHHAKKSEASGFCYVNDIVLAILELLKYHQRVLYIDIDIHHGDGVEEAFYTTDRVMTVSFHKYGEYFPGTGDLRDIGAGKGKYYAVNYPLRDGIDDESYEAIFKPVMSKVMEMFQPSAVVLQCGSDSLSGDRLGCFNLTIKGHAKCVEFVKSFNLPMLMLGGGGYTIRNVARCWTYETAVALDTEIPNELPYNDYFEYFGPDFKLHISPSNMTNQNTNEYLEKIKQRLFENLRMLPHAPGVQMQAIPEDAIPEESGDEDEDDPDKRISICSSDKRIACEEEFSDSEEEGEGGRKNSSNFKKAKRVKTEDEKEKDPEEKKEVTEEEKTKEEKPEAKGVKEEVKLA

Compound | IC50 [1] | IC50 [2] | IC50 [3] | IC50 [4] | IC50 [5]
Cc1[nH]c2ccccc2c1CCNCc1ccc(/C=C/C(=O)NO)cc1 [PANOBINOSTAT] | 20 nM | < 100 nM | < 100 nM |  | 
CC(C)n1cnc2c(NCc3cccc(/C=C/C(=O)NO)c3)nc(N3CCOCC3)nc21 | 1260 nM | 220 nM | 390 nM | 7 nM | 127 nM
CC[C@H](CO)Nc1nc(NCc2ccccc2)c2ncn(C(C)C)c2n1 [SELICICLIB] | > 10000 nM | 15800 nM | > 10000 nM |  | 
CCn1cnc2c(NCc3cccc(/C=C/C(=O)NO)c3)nc(N3CCOCC3)nc21 | 1490 nM | 770 nM | 1140 nM | 5.8 nM | 56 nM
